Like-named read-outs stand apart in the source and are kept apart here. Some results are limits rather than exact numbers.

The text below walks through data of article PMC8291583, “Design, synthesis, and evaluation of 3,7-substituted coumarin derivatives as multifunctional Alzheimer’s disease agents” (Journal of Enzyme Inhibition and Medicinal Chemistry, 2021).

For one test, the target named is T1, recombinant human MAO-A (Homo sapiens, UniProt P21397).
T1 sequence (P21397 1-527): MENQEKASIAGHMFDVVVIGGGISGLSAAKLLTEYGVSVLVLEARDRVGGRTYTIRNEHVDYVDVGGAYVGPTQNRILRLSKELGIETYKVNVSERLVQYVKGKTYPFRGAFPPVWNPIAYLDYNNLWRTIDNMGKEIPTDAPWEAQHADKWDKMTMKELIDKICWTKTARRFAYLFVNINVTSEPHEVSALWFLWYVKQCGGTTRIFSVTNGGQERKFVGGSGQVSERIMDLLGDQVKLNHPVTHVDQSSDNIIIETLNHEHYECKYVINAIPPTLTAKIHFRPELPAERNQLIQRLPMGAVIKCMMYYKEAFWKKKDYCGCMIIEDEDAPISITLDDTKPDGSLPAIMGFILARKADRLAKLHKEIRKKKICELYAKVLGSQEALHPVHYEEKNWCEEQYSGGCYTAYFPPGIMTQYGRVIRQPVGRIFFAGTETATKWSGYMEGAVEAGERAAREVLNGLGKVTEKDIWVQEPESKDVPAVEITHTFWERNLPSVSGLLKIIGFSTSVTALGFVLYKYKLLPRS
The experiment in a line: biochemical. Here is the method: The stock was then further diluted by factors of ten to produce solutions of 1 mM, 100 µM, 10 µM, 1 µM, and 0.1 µM which would correspond to concentrations of 100 µM, 10 µM, 1 µM, 0.1 µM, and 0.01 µM in the final reaction mixture. A potassium phosphate buffer ([…] 100 mM, pH 7.4, 0.9% w/v NaCl) was prepared and refrigerated until further use. The enzyme stock solutions were prepared by dissolving 2.5 mg of enzyme in 33.33 ml of phosphate buffer to produce stock solutions of 0.075 mg/ml which were stored in aliquots at −80 °C until use. Once in the final reaction mixture, this enzyme solution will have a concentration of 0.0075 mg/ml. […] The fresh substrate was prepared on the day of the assay. The assay was carried out in 2 ml Eppendorf vials. […] Following this, 25 µl of the enzyme stock were added to each vial in 10 s intervals and the vials were incubated at 37 °C for 10 min. […] To stop the reaction at the end of this time 150 hx00B5;l of 2 N NaOH was added and the mixture was shaken. Using a micropipette 80 hx00B5;l of the mixture was transferred to a well in a black 96 well plate. The plate was placed in the fluorescent plate reader and read at an excitation/emission wavelength of 310 nm/410 nm. Each assay was run in triplicate and the data were analysed with Graph Pad Prism 8 software (San Diego, USA).
The MAO inhibitory activity of the compounds was assessed using a fluorometric assay with recombinant human MAO-A and human MAO-B enzymes.

The target of a further test is recombinant human MAO-B (Homo sapiens, UniProt P27338). The experiment in a line: MAO-B fluorometric assay (kynuramine). It is filed as biochemical. Here is the method: . The stock was then further diluted by factors of ten to produce solutions of 1 mM, 100 µM, 10 µM, 1 µM, and 0.1 µM which would correspond to concentrations of 100 µM, 10 µM, 1 µM, 0.1 µM, and 0.01 µM in the final reaction mixture. A potassium phosphate buffer ([…] 100 mM, pH 7.4, 0.9% w/v NaCl) was prepared and refrigerated until further use. The enzyme stock solutions were prepared by dissolving 2.5 mg of enzyme in 33.33 ml of phosphate buffer to produce stock solutions of 0.075 mg/ml which were stored in aliquots at −80 °C until use. […]. The substrate was prepared by dissolving kynuramine in potassium buffer and was prepared as two separate concentrations; […]. The fresh substrate was prepared on the day of the assay. The assay was carried out in 2 ml Eppendorf vials. […] Following this, 25 µl of the enzyme stock were added to each vial in 10 s intervals and the vials were incubated at 37 °C for 10 min. After this time period 15 µl of kynuramine (750 µM for MAO-A and 500 µM for MAO-B) was added at 10 s intervals and further incubated for 20 min. To stop the reaction at the end of this time 150 hx00B5;l of 2 N NaOH was added and the mixture was shaken. Using a micropipette 80 hx00B5;l of the mixture was transferred to a well in a black 96 well plate. The plate was placed in the fluorescent plate reader and read at an excitation/emission wavelength of 310 nm/410 nm. Each assay was run in triplicate and the data were analysed with Graph Pad Prism 8 software (San Diego, USA).
recombinant human MAO-B, sequence (P27338 whole entry): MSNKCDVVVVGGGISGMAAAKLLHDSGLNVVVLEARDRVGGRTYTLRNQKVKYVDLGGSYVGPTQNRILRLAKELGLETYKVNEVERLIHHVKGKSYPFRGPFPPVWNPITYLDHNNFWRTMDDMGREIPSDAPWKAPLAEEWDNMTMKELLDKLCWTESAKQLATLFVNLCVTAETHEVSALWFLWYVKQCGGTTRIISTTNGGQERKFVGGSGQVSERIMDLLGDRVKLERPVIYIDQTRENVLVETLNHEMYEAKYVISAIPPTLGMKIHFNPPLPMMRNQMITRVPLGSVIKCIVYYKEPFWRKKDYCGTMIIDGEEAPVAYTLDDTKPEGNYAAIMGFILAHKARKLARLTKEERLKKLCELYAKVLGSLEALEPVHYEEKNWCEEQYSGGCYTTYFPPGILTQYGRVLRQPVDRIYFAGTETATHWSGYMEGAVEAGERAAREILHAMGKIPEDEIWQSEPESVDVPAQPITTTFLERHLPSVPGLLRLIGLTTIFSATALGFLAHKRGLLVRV
The MAO inhibitory activity of the compounds was assessed using a fluorometric assay with recombinant human MAO-A and human MAO-B enzymes. […].

In test [1] the target is Electrophorus electricus AChE (Electrophorus electricus, UniProt O42275). The experiment in a line: biochemical. Here is the method:
(§1) Cholinesterase activity is determined using a modified colorimetric method first described by Ellman[40]. […] The stock was then further diluted by factors of ten to produce solutions of 1 mM, 100 µM, 10 µM, 1 µM, and 0.1 µM which corresponds to concentrations of 100 µM, 10 µM, 1 µM, 0.1 µM, and 0.01 µM in the final reaction mixture. The test concentrations were stored in the refrigerator until the day of the assay. Trisma HCl buffer (50 mM, adjusted to pH 8 with 2 N NaOH) was prepared as the buffer and used to prepare enzyme stock solution (22 U/ml for Electrophorus electricus AChE and 12 U/ml BuChE from equine serum), 15 mM acetylthiocholine iodide, 15 mM S-butyrylthiocholine iodide and 1.5 mM DTNB (Ellman’s reagent). The enzyme stock solution was stabilised with 1% bovine serum albumin and stored in aliquots at −80 °C. A clear, flat bottom 96 well plate was used to perform the experiments with each concentration performed in triplicate. Prior to the assay the background absorbance for each compound at the different test concentrations was measured and accounted for when reading the final absorbance. […] Following this, 30 µl of the substrate was added to each well simultaneously using a multi pipette. […] A one-sample t-test was performed on the data to test for statistical significance.

A further test concerns the target T2, BuChE from equine serum (Equus caballus, UniProt P81908).
T2 construct: 12 U/ml BuChE from equine serum; from tissue; host or cells: equine serum
The experiment in a line: biochemical. As for the experimental part: as §1

The subject of test [2] is MPP+-compromised SH-SY5Y neuroblastoma cells. It is filed as cell-based, human. As for the experimental part: SH-SY5Y cells were seeded onto a 96-well plate in a growth medium at a density of 10,000 cells/well. Cells were pre-treated with test compounds at a concentration of 10 µM and thereafter 2000 µM MPP^+ following a 2-h incubation period. Afterwards, cells were incubated for 24 h and MTT colorimetric assay was used to measure cell viability relative to untreated control. To determine the data’s statistical significance, the One-way ANOVA Turkey’s multiple comparison test was conducted on all experimental replicates using GraphPad Prism® 8 (San Diego, USA).
The SH-SY5Y cells were pre-treated with 10 µM of the test compounds for 2 h followed by the addition of 2000 µM of MPP^+.

[3] abbreviates: kynuramine 45 µM, 37 °C, read-out: MAO-A IC50.
[4] abbreviates: kynuramine 30 µM, 37 °C, read-out: MAO-B IC50.
[5] abbreviates: Ellman method, 25 °C, pH 8, read-out: AChE IC50.
Setting [6] is: Ellman method, 25 °C, pH 8, read-out: BuChE IC50.
The mark [7] stands for this setting: 10 µM compound, 2 h pre-treatment, 2000 µM MPP+, 24 h, SH-SY5Y.

T2 sequence (P81908 whole entry): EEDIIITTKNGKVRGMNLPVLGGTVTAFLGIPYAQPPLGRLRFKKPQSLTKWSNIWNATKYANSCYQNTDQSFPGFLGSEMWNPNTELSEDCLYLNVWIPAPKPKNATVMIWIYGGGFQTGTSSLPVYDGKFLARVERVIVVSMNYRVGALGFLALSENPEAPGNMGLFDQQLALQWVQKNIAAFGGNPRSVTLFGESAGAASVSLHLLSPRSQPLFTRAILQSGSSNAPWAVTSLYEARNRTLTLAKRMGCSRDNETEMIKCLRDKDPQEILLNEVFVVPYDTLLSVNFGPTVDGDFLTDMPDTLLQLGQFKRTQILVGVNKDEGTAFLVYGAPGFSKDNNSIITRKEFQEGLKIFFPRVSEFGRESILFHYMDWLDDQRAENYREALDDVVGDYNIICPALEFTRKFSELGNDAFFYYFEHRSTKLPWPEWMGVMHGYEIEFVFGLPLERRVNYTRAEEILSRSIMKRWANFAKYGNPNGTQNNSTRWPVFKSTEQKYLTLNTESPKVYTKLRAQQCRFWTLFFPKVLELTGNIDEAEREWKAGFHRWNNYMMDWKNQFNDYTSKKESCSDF
Electrophorus electricus AChE, sequence (O42275 24-633): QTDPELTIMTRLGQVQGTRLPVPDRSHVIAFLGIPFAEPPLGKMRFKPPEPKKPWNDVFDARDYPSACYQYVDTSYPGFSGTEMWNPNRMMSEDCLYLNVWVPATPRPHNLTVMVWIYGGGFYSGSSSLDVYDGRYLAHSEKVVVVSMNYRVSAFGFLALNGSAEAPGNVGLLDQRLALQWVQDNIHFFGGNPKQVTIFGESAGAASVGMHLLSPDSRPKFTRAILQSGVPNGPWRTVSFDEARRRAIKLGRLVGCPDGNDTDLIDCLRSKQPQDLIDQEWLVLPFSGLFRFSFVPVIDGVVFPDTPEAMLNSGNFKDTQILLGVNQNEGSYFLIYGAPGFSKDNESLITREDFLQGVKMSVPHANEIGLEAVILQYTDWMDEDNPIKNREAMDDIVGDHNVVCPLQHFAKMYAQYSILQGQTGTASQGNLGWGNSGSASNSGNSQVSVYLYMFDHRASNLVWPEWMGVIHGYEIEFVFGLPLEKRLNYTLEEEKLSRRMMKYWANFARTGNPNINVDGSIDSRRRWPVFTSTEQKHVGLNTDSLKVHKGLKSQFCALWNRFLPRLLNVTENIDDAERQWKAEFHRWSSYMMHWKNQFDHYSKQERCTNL

For the compound `Cc1cc2ccc(O)cc2oc1=O` [Compound 1, 7-hydroxy-3-methyl-2H-1-benzopyran-2-one], the IC50 at recombinant human MAO-A (MAO-A IC50) was 33.4 µM; at recombinant human MAO-B it was 16.4 µM; in test [1] (AChE IC50), more than 100 µM; against BuChE from equine serum, 20.2 µM. The “SI MAO-B (MAO-B selectivity index = IC50(MAO-A)/IC50(MAO-B))” value at recombinant human MAO-B came to 2.04. In addition, the “MPP+ neuroprotection (difference in percentage cell viability vs MPP+ only treated cells)” value in test [2] worked out at 26.24%.

On to `Cc1cc2ccc(OCCc3ccccc3)cc2oc1=O` [Compound 2, 3-methyl-7-(2-phenylethoxy)-2H-1-benzopyran-2-one], for which the IC50 at recombinant human MAO-A (setting [3]) was 0.658 µM; on recombinant human MAO-B (setting [4]) it was 0.014 µM; in test [1] (setting [5]), more than 100 µM; on BuChE from equine serum (setting [6]), more than 100 µM. Besides, the “SI MAO-B (MAO-B selectivity index = IC50(MAO-A)/IC50(MAO-B))” value at recombinant human MAO-B is 47.7. The “MPP+ neuroprotection (difference in percentage cell viability vs MPP+ only treated cells)” value in test [2] (setting [7]) came out at 24.85%.

Take `CCN(CC)C(=O)Oc1ccc2cc(C)c(=O)oc2c1` [Compound 3, 3-methyl-2-oxo-2H-1-benzopyran-7-yl-diethylcarbamate]: the IC50 at recombinant human MAO-A (setting [3]) is 2.82 µM; on recombinant human MAO-B (setting [4]), 0.498 µM; in test [1] (setting [5]) it was more than 100 µM; on BuChE from equine serum (setting [6]) it was more than 100 µM. In addition, the “SI MAO-B (MAO-B selectivity index = IC50(MAO-A)/IC50(MAO-B))” value on recombinant human MAO-B is on record as 5.67. Further, the “MPP+ neuroprotection (difference in percentage cell viability vs MPP+ only treated cells)” value in test [2] (setting [7]) worked out at 15.59%.

What is called IC50 is the concentration that gives 50% inhibition.
